# Source: patent US4925651A, “Radiofluoro-tyrosine derivatives, the preparation and use thereof” (priority 1988, dated 1990)
# Where two headings read alike, the source gives them in different places.
# Tests used:
# [1] = Comparative uptake and incorporation of halogenated amino acids in mouse brain (40 min after i.v. injection); format: in vivo; settings: mouse, in vivo, iv
# Experimental: (§1) Typically, 0.75 to 1.5 MBq of L-2-[^18 F]-fluorotyrosine in 50 to 100 μl of isotonic solution were injected into the tail vein of NMRI mice.
# (§2) After a defined incubation time, the animals were sacrificed and the brains were removed within 20 s and frozen in liquid nitrogen. Parts of the frontal cortex were removed (about 20 mg), weighed, homogenized in distilled water by ultrasonic treatment and, after 10 s, trichloroacetic acid (TCA) was added (final concentration >10%). The protein fraction precipitated by TCA was spun down and washed 2× with TCA solution, and the radioactivity in the combined supernatants and in the protein pellet was measured.
# (§3) Results of comparative experiments on the incorporation of halogenated amino acids in mouse brain (40 min after i.v. injection) are compiled in the table which follows: […]
# mouse brain [2] = experiment: as above; format: in vivo
# Experimental: as §1, §2, §3
# brain tissue = experiment: HPLC investigation of TCA supernatant for free 2-[^18 F]-fluorotyrosine in brain tissue; format: in vivo, NMRI mice; settings: for proportion of free (unmetabolized) 2-fluorotyrosine of the total tissue activity: brain tissue supernatant, HPLC; for recovery of the activity: free plus protein-incorporated
# Experimental: as §1, §2
# The supernatant was investigated by HPLC (for conditions, see Example 1) for the proportion of free 2-[^18 F]-fluorotyrosine. It emerged from this that the activity not incorporated in proteins was present almost entirely as unmetabolized 2-fluorotyrosine.
# striatum = experiment: Analysis for catecholamine formation in the striatum; format: in vivo
# Source text: (§4) Appropriate analysis in the striatum, the area of the brain which is highly permeated by dopaminergic nerve cells, has also ruled out the formation of catecholamines from 2-fluorotyrosine. Thus 2-[^18 F]-fluorotyrosine is an ideal tracer for the quantification of the rate of protein synthesis using a three-compartment model, which is relatively easy to handle mathematically and as is used for 2-[^18 F]-fluorodeoxyglucose in PET studies. The uptake of >1.6% of the injected dose per gram of tissue (see table below) is, moreover, adequate for PET investigations.
# tissue = experiment: Distribution of radioactivity and metabolite analysis in tissue up to two hours after injection; format: in vivo
# Source text: as §4
# [3] = tested on: cerebral proteins (frontal cortex); experiment: Fraction of radioactivity incorporated in cerebral proteins (TCA precipitation, frontal cortex) after tail vein injection; format: in vivo, NMRI mice
# Experimental: as §1, §2
# [4] = tested on: cerebral protein synthesis; settings: Coenen et al., cited from earlier work
# mouse brain [5] = settings: 40 min, footnote * Literature data; cited from earlier work
# [6] = mouse brain, 40 min after i.v. injection, read-out: Uptake
# [7] = mouse brain, 40 min after i.v. injection
structure (smiles),measurement,setting,value
NC(Cc1ccccc1[18F])C(=O)O (stereo not shown) [2 - ^18 FPhe],tissue uptake at 40 min,[1],2 ± 0.4 %ID/g
same,Incorporation,"mouse brain [2]; mouse, in vivo, iv",11 ± 2 % of cerebral activity
"N[C@@H](Cc1ccc(O)cc1[18F])C(=O)O [2 - ^18 FTyr, 2-[^18 F]-fluorotyrosine]",proportion of free (unmetabolized) 2-fluorotyrosine of the total tissue activity,brain tissue; 20 min,51±3%
same,recovery of the activity,brain tissue; 20 min,95±6%
same,proportion of free (unmetabolized) 2-fluorotyrosine of the total tissue activity,brain tissue; 60 min,11±2%
same,recovery of the activity,brain tissue; 60 min,95±4%
same,chemical form of the activity in brain tissue,brain tissue; HPLC of supernatant,present in brain tissue virtually only in two chemical forms
same,formation of catecholamines,striatum,ruled out
same,influence from redistributed labeled metabolites from the blood,tissue; in vivo,can be ruled out
same,distribution of radioactivity in tissue,tissue; up to two hours after injection,distributed only over the free fluorinated amino acid and the portion incorporated in protein
same,tissue uptake at 40 min,[1]; [6],1.3 ± 0.005 %ID/g
same,tissue uptake at 40 min,"[1]; refers to table, read-out: uptake of the injected dose per gram of tissue",> 1.6 %ID/g
same,cerebral incorporation rate (in words),mouse brain [2]; after 40 min,comparable to that for the natural amino acids methionine and phenylalanine
same,Incorporation,mouse brain [2]; [7],62 ± 3 % of cerebral activity
same,fraction incorporated in cerebral proteins,[3]; 20 min after injection,44±3%
same,fraction incorporated in cerebral proteins,[3]; 60 min after injection,84%
same,incorporation in cerebral proteins (in words),[3]; >1 h after the injection,almost quantitative
NC(Cc1ccccc1[75Br])C(=O)O (stereo not shown) [2 - ^75 BrPhe],tissue uptake at 40 min,[1],2.4 ± 0.4 %ID/g
same,Incorporation,"mouse brain [2]; mouse, in vivo, iv",15 ± 1 % of cerebral activity
"N[C@@H](Cc1ccc(O)c(F)c1)C(=O)O [3 - ^18 FTyr, 3-fluorotyrosine]",tissue uptake at 40 min,[1]; [6],0.8 ± 0.005 %ID/g
same,Incorporation,mouse brain [2]; [7],26 ± 1 % of cerebral activity
"C[C@](N)(Cc1ccc(O)c([123I])c1)C(=O)O [3 - ^123 I-α-MeTyr, 3-iodo-α-methyltyrosine]",tissue uptake at 40 min,[1],0.8 ± 0.1 %ID/g
same,Incorporation,"mouse brain [2]; mouse, in vivo, iv",18 ± 1 % of cerebral activity
NC(Cc1ccc(O)c([123I])c1)C(=O)O (stereo not shown) [3 - ^123 ITyr],tissue uptake at 40 min,[1],0.2 ± 0.005 %ID/g
same,Incorporation,"mouse brain [2]; mouse, in vivo, iv",13 ± 4 % of cerebral activity
"NC(Cc1ccc([18F])cc1)C(=O)O (stereo not shown) [4 - ^18 FPhe, p-[^18 F]-fluorophenylalanine]",tissue uptake at 40 min,[1],1.5 ± 0.3 %ID/g
same,Incorporation,"mouse brain [2]; mouse, in vivo, iv",20 ± 2 % of cerebral activity
same,incorporation rate in cerebral protein (in words),[4],relatively low
same,radioactivity in cerebral tissue assigned to an unidentified metabolite pool,[4]; animal model,about 20%
NC(Cc1ccc([75Br])cc1)C(=O)O (stereo not shown) [4 - ^75 BrPhe],tissue uptake at 40 min,[1]; [6],2 ± 0.4 %ID/g
same,Incorporation,mouse brain [2]; [7],17 ± 5 % of cerebral activity
"CC(C)C[C@H](N)C(=O)O [^14 C-Leu, leucine]",Incorporation,mouse brain [5],85 ± 4 % of cerebral activity
"CSCC[C@H](N)C(=O)O [^14 C-Met, methionine]",Incorporation,"mouse brain [2]; mouse, in vivo, iv",57 ± 3 % of cerebral activity
"N[C@@H](Cc1ccccc1)C(=O)O [^14 C-Phe, phenylalanine]",Incorporation,mouse brain [2]; [7],63 ± 2 % of cerebral activity
